We go through four compounds from US6180624A (priority 1994, dated 2001).

Structures are written as SMILES. “Also recorded” adds a separate entry of the source. Read-outs that look alike come from different tables or passages of the source.

The test system of experiment [1] is nociceptive spinal reflexes. As to the kind of experiment: animal or person. The experiment is classed as in vivo, rabbit (male New Zealand white). As to conditions: for ED50: Oryctolagus cuniculus, iv; for Effect on baseline, facilitation and wind-up responses: all three measures, FIG. 1, 2, 4. As for the experimental part: Male New Zealand white rabbits (2.5-3.5 kg) were anaesthetised by an injection of 0.9% alphaxalone and 0.3% alphadolone (Saffan) directly into an ear vein. A cervical spinalization was performed and the cerebral cortex removed (decerebration) allowing anaesthesia to be discontinued. The left hind limb was shaved and a bipolar recording electrode inserted into the biceps femoris/semitendinous muscle. A noxious stimulus was applied to the area of the receptive field of the motor units to the skin of the foot. Single shocks (1 ms square pulses; 2 times threshold) were applied at a rate of 1 per minute. The conditioning stimulus was 20 of these impulses at a rate of 1 Hz, producing wind-up. The baseline parameters were again applied 20 seconds following the conditioning stimulus, the first of these stimuli is termed the facilitation of the baseline response. Injections were administered at 15 minute intervals, the first two always being the relevant drug vehicle. The time-course of events throughout the experiment was as shown below:
t=0 mins: Dose with vehicle (i.v.).
t=40 sec: Begin baseline stimulation (1 per minute).
t=10 mins: Conditioning stimulus applied (20 @ 1 Hz; wind-up).
t=10 mins 40 secs: Baseline stimulation resumes (Initial baseline response equates to facilitation).
t=15 mins: Dose with vehicle (i.v.).
t=25 mins: Conditioning stimulus applied.
t=25 mins 40 secs: Baseline stimulation resumes.
t=30 mins: Dose with test compound (i.v.).
t=40 mins: Conditioning stimulus applied.
t=40 mins 40 secs: Baseline stimulation resumes.
t=45 mins and every 15 minutes thereafter: Drug treatment (i.v.).
t=55 mins and every 15 minutes thereafter: Conditioning stimulus applied.
40 seconds after each conditioning stimulus baseline stimulation is resumed.
In each experiment the values obtained to the second vehicle were used as the control response. Each of the values obtained with drug treatment was expressed as a percentage of the control response. In the case of changes in baseline the last four values obtained prior to the conditioning response were taken to represent baseline activity. The effect of drug treatment was determined by comparing the baseline post-drug to the control baseline. Four rabbits were used in each experiment unless otherwise stated.

For experiment [2], the system named is phenylbenzoquinone-induced writhing. As to conditions: Garret et al.; cited from earlier work.
Another experiment concerns formalin test. As to conditions: Garret et al.; cited from earlier work.
Another experiment relates to morphine-induced emesis. As to conditions: ferrets; cited from earlier work.
[3] abbreviates: baseline, i.v., decerebrate, spinalized rabbit, read-out: Approximate ID50, inhibition of baseline firing rate.
Setting [4] is: facilitation, i.v., decerebrate, spinalized rabbit, read-out: Approximate ID50, inhibition of facilitation.
Where [5] appears, read: wind-up, i.v., decerebrate, spinalized rabbit, read-out: Approximate ID50, inhibition of wind-up.

As for `COc1ccccc1CN[C@@H]1CCCN[C@@H]1c1ccccc1` [CP-100,263], the ED50 in experiment [1] (setting [3]), in experiment [1] (setting [4]) and in experiment [1] (setting [5]) was more than 1 mg/kg throughout. Further, the “Effect on baseline, facilitation and wind-up responses” value in experiment [1] (i.v.) is “did not inhibit baseline, facilitation or wind-up responses; also recorded: lack of effect”.
As to `COc1ccccc1CC(=N)N1C[C@@H]2C(=O)CCC(c3ccccc3)(c3ccccc3)[C@@H]2C1` [RP 67,580], the “Analgesia potency relative to morphine, phenylbenzoquinone-induced writhing” value in experiment [2] is reported as “potency comparable to that of morphine”. Besides, in the experiment with formalin test, the “Analgesia potency relative to morphine, formalin test” value is listed as “potency comparable to that of morphine”.
With `COc1ccccc1CN[C@H]1CCCN[C@H]1c1ccccc1` [CP-99,994], the “Facilitation of nociceptive spinal reflexes” value in experiment [1] (CP-99,994 1-100 μg/kg i.v.) is “reduce facilitation of nociceptive spinal reflexes”. The ED50 was 0.05 mg/kg in experiment [1] (setting [3]), 0.008 mg/kg in experiment [1] (setting [4]) and 0.01 mg/kg in experiment [1] (setting [5]). The “Effect on baseline, facilitation and wind-up responses” value in experiment [1] (i.v.) is given as “dose-dependent reduction in all three measures”. Further, the “Antagonism of the anti-nociceptive effects of morphine by CP-99,994” value in experiment [1] (rabbit, in vivo) was “not antagonised”. The “Effect of CP-99,994 and morphine given together on the nociceptive reflex” value in experiment [1] (rabbit, in vivo) is on record as “appeared to be additive to those of morphine”. Besides, the “Emetic response to morphine” value with morphine-induced emesis is listed as “attenuate the emetic response to morphine”.
Regarding `CN1CC[C@]23c4c5ccc(O)c4O[C@H]2[C@@H](O)C=C[C@H]3[C@H]1C5` [Morphine, morphine], in experiment [1] (baseline, i.v., decerebrate, spinalized rabbit), the “Approximate ID50, inhibition of baseline firing rate” value is 0.5 mg/kg. The “Approximate ID50, inhibition of facilitation” value in experiment [1] (facilitation, i.v., decerebrate, spinalized rabbit) was determined as 0.5 mg/kg. Moreover, in experiment [1] (morphine 0.5 mg/kg i.v. prior to CP-99,994 dose response curve, FIG. 3), the “Effect of morphine pre-treatment on CP-99,994 induced inhibition of each measure” value is “failed to attenuate the CP-99,994 induced inhibition of each measure”. Further, the “Approximate ID50, inhibition of wind-up” value in experiment [1] (wind-up, i.v., decerebrate, spinalized rabbit) was determined as 0.5 mg/kg.
